Assay type in all cases: cell-based
The test system of assay [1] is human cortical brain organoids. The assay can be described thus: Whole-mount immunostaining of human cortical brain organoids (p62, poly-ubiquitin). Here is the method: Whole-Mount Immunostaining of Human Cortical Brain Organoids. Similar to the above-referenced procedures described for Drosophila tissues, human cortical brain organoids were immunostained with the following modifications: fixation and washes were done with 0.4% TRITON⋅ X-100; fixation was carried out for 50 minutes at room temperature; and organoids were blocked for >1 hour with PBS with 0.4% TRITON X-100 and 5% bovine serum albumin (BSA) before incubation with primary antibodies.
(§1) Drug Treatment of Human Cortical Brain Organoids. An additional 0.5 mL of culture medium was added to reach the final amount of 1 mL with 0, 3, 5, 10, 20, 40, or 80 mg of maltose per mL, or with 10, 20, 40 μL of porcine alpha-Amylase (MP Biomedicals) per mL, as indicated. After culturing at 37° C. for 3 days, the organoids were kept for 7 hours at 41.5° C. for heat shock, or at 37° C. (control). Subsequently, the organoids were collected and snap frozen. The organoids were then processed as described above for the western blot analysis of detergent-soluble and detergent-insoluble fractions.
Whole-mount immunostaining of organoids was carried out following similar procedures as described above for Drosophila brains and retinas, with anti-poly-ubiquitin (FK2; Enzo Life Sciences) and anti-p62/SQSTM1 antibodies (Cell Signaling Technologies). […]

In assay [2] the test system is human cortical brain organoids. As to the kind of experiment: RNA-sequencing of human cortical brain organoids. The protocol:
RNA-Sequencing of Human Cortical Brain Organoids. RNA sequencing libraries for each sample were prepared with 1 μg total RNA using the Illumina TRUSEQ® RNA Sample Prep v2 Kit per the manufacturer's instructions, and sequencing was completed on the Illumina HiSeq 2000. The 100 bp paired-end reads were trimmed, filtered against quality (Phred-like Q20 or greater) and length (50 bp or longer), and aligned to a human reference sequence GRCh38 (UCSC hg38), using CLC Genomics Workbench v12.0.1 (Qiagen). For gene expression comparisons, the TPM (transcript per million) counts were obtained from the RNA-Seq Analysis tool. A total of 19749 genes with TPM greater than one in at least one sample were in the principal component analysis (PCA) and the gene expression analysis was performed using the non-parametric ANOVA using the Kruskal-Wallis and Dunn's tests on log-transformed TPM counts between three replicates of each experimental group, implemented in Partek Genomics Suite v7.0 software (Partek Inc.).
as §1

Assay [3] concerns human cortical brain organoids. The assay can be described thus: Multielectrode array recording of human cortical brain organoids. The protocol:
Multielectrode Array Recording of Human Cortical Brain Organoids. Spontaneous neuronal activity of cortical organoids was recorded on the Axion Maestro Edge multielectrode array system. Two different methods for plating and recording were optimized from two-month old and three-month old organoids, to ensure maximum contact with electrodes. Method 1 (Two-month old cortical organoids; Maltose treatment): Growth factor reduced-cell culture matrix sold under the tradename […]® (Corning) was diluted 1:3 in chilled media containing BrainPhys and 10% ES-FBS and kept on ice. D60 cortical organoids were first sliced in half using a pair of fine tweezers. Each half was then plated onto one well of a 24-well Cytoview plate (Axion Biosystems), where each well contained a grid of 16 electrodes. After placing the organoid slice onto a dry and empty well using a sterile flat spatula, 15 μL of the chilled and diluted cell culture matrix sold under the tradename […]® was added onto the slice. A P10 tip was used to position the slice to the center of the well over the grid of electrodes. Three such plates were prepared. The plates were incubated at 37° C. for 3 hours for the cell culture matrix to solidify over the organoid slices. After 3 hours, 500 μL of BrainPhys media supplemented with 100× N2 supplement, 50× B27 supplement without Vitamin A, 10 ng/ml BDNF and 10 ng/ml GDNF were added slowly to each well. Every three days, 300 μL media in each well was replaced with fresh media three days and six days after plating. Seven days after plating, the plates were treated with either control or maltose containing media; all treatment conditions were included in each of the four plates. Three days after treatment, spontaneous activity was recorded from each plate. The plates were then subjected to heat shock for 7 hours at 41.5° C. Spontaneous activity in each plate was recorded again after the heat shock. This recording was repeated after 17 hours of recovery and after 43 hours of recovery. Data was analyzed using the Neural Metric tool (Axion Biosystems).

[4] abbreviates: after heat shock, compared to control-treated organoids.

This note sets out measurements from patent US20230310559A1, “Use of Amylase or Maltose to Treat or Prevent Neurodegeneration” (St. Jude Children's Research Hospital, Inc., priority 2020, published 2023).

“Also recorded” adds a separate entry of the source. Some results are limits rather than exact numbers.

Consider `OC[C@H]1O[C@H](O[C@H]2[C@H](O)[C@@H](O)C(O)O[C@@H]2CO)[C@H](O)[C@@H](O)[C@@H]1O` (mixture of isomers) [maltose], for which the “p62 and ubiquitin immunoreactivity” value in assay [1] (heat-shocked organoids, compared to controls) is reported as “significantly decreased”. For the same molecule, in assay [1] (organoids, control conditions (no heat shock)), the “levels of p62 and poly-ubiquitinated proteins (immunostaining)” value is recorded as “no change”. Besides, in assay [2] (human cortical brain organoids), the “expression of gene clusters involved in protein quality control (proteasome components, proteases/peptidases)” value was “promoted the expression” and the “gene expression changes induced by heat shock (RNA-seq)” value was “prevented some of the gene expression changes”. The “mRNA and proteins levels of CRYA (a-crystallin)” value in assay [2] (human cortical organoids) is on record as “increased”. Moreover, in assay [3] (setting [4]), the bursts result is “more bursts”, the “number of active electrodes” value is reported as “higher number of active electrodes”, the “number of bursting electrodes” value is “higher number of bursting electrodes” and the number of spikes entry is “higher number of spikes”. The “neuronal activity (number of active electrodes, bursting electrodes, network bursts)” value in assay [3] (immediately after and at 17 hours and 43 hours after heat shock) is listed as “significantly preserved; also recorded: higher neuronal activity”. In addition, the “levels of maltose effective in preserving neuronal activity” value in assay [3] (organoids after heat shock) was no more than 5 mg/mL. The “neuronal activity (number of active electrodes, bursting electrodes, network bursts)” value in assay [3] (steady state / pre-heat shock) is on record as “not modulated”.
